# Experiments:
# [1] = tested on: BESM host cells (bovine embryo skeletal muscle), cytotoxicity; assay: anti-trypanosomal activity in BESM host cells – imaging, CA-I/72 strain, bovine embryo skeletal muscle, dry powder, dose response (AID 651885); conditions: T. cruzi CA-I/72 amastigotes in BESM cells, imaging, 72 h; measured here: host BESM cell toxicity
# [2] = tested on: T. cruzi CA-I/72 amastigotes in BESM cells, imaging, 72 h; assay: as above; conditions: for IC90: measured here: parasite IC90, test 4; for IC99: measured here: parasite IC99, test 4
Structure (SMILES),IC50 [1],other results
C[C@@H]1CN([C@@H](C)CO)C(=O)c2cc(-c3cncnc3)cnc2O[C@H]1CN(C)Cc1ccc(Oc2ccccc2)cc1,> 20 µM,–
CC(C)N1C[C@H](C)[C@@H](CN(C)C(=O)OC(C)(C)C)Oc2c(C(=O)Nc3ccncc3)cccc2C1=O,> 20 µM,–
COc1ccc(CN(C)C[C@H]2Oc3c(NC(=O)c4ccncc4)cccc3C(=O)N([C@@H](C)CO)C[C@@H]2C)cc1,15.3 µM,–
C[C@H]1CN([C@@H](C)CO)C(=O)c2cccc(NC(=O)c3ccncc3)c2O[C@@H]1CN(C)Cc1ccc(C(F)(F)F)cc1,> 20 µM,–
CC(C)N1C[C@H](C)[C@@H](CN(C)Cc2ccccc2)Oc2c(NC(=O)c3ccncc3)cccc2C1=O,> 20 µM,–
CCCn1ncc(CN2CCCC(C(=O)c3cccc(OC(C)C)c3)C2)c1C (stereo not drawn),> 20 µM,–
C[C@H]1CN([C@@H](C)CO)C(=O)c2cccc(NC(=O)c3ccncc3)c2O[C@H]1CN(C)Cc1ccc(Oc2ccccc2)cc1,> 20 µM,–
CC(C)N1C[C@H](C)[C@@H](CN(C)C(=O)OC(C)(C)C)Oc2c(C#N)cccc2C1=O,> 20 µM,–
CC(C)N1C[C@H](C)[C@@H](CN(C)Cc2ccc(Oc3ccccc3)cc2)Oc2c(NC(=O)c3ccncc3)cccc2C1=O,> 20 µM,–
CNC[C@@H]1Oc2c(NC(=O)c3ccncc3)cccc2C(=O)N(C(C)C)C[C@H]1C,> 20 µM,–
C[C@H](CO)N1C[C@H](C)[C@@H](CN(C)Cc2ccc(Oc3ccccc3)cc2)Oc2c(NC(=O)c3ccncc3)cccc2C1=O,> 20 µM,–
C[C@@H]1CN([C@@H](C)CO)C(=O)c2cccc(NC(=O)c3ccncc3)c2O[C@H]1CN(C)Cc1ccccc1Cl,> 20 µM,–
Cc1cc(C(=O)Nc2cccc3c2O[C@@H](CN(C)Cc2ccc(Oc4ccccc4)cc2)[C@H](C)CN([C@@H](C)CO)C3=O)n(C)n1,> 20 µM,–
COc1ccc(CCN(C)C(=O)C2CCCN(Cc3ccc(OC)c(OC)c3)C2)cc1OC (stereo not drawn),> 20 µM,–
C[C@@H]1CN([C@@H](C)CO)C(=O)c2cccc(NC(=O)c3ccncc3)c2O[C@H]1CN(C)Cc1ccc2c(c1)OCO2,> 20 µM,IC90 [2]: 0.921 µM; IC99 [2]: 7.92 µM
C[C@@H]1CN([C@@H](C)CO)C(=O)c2cccc(NC(=O)c3ccncc3)c2O[C@H]1CN(C)Cc1cccc(Cl)c1,> 20 µM,–
CC(C)N1C[C@H](C)[C@@H](CN(C)C(=O)OC(C)(C)C)Oc2c(NC(=O)c3ccccc3)cccc2C1=O,> 20 µM,–
C[C@@H]1CN([C@@H](C)CO)C(=O)c2cccc(NC(=O)c3ccncc3)c2O[C@H]1CN(C)C,> 20 µM,–
COc1ccc(CN(C)C[C@@H]2Oc3c(NC(=O)c4ccncc4)cccc3C(=O)N([C@@H](C)CO)C[C@H]2C)cc1,> 20 µM,IC90 [2]: 1.58 µM; IC99 [2]: 15.9 µM
CC(C)N1C[C@H](C)[C@@H](CN(C)Cc2cccc(Cl)c2)Oc2c(NC(=O)c3ccncc3)cccc2C1=O,19.1 µM,–
C[C@@H]1CN([C@@H](C)CO)C(=O)c2cccc(NC(=O)c3ccncc3)c2O[C@H]1CN(C)Cc1ccc(Oc2ccccc2)cc1,> 20 µM,IC50 [2]: 0.011 µM; IC90 [2]: 0.108 µM; IC99 [2]: 1.19 µM
C[C@@H]1CN([C@H](C)CO)C(=O)c2cccc(NC(=O)c3ccncc3)c2O[C@H]1CN(C)Cc1ccc(C(F)(F)F)cc1,> 20 µM,IC90 [2]: 0.472 µM; IC99 [2]: 4.75 µM
C[C@H](CO)N1C[C@H](C)[C@H](CN(C)Cc2ccc(Oc3ccccc3)cc2)Oc2c(NC(=O)c3ccncc3)cccc2C1=O,> 20 µM,–
C[C@@H]1CN([C@H](C)CO)C(=O)c2cccc(NC(=O)c3ccncc3)c2O[C@H]1CN(C)Cc1ccc2c(c1)OCO2,> 20 µM,–
C[C@@H]1CN([C@@H](C)CO)C(=O)c2cccc(NC(=O)c3ccncc3)c2O[C@@H]1CN(C)Cc1ccc(Oc2ccccc2)cc1,> 20 µM,–
C[C@@H]1CN([C@H](C)CO)C(=O)c2cccc(NC(=O)c3ccncc3)c2O[C@H]1CN(C)Cc1ccccc1,> 20 µM,–

Structure (SMILES),IC50 [1],other results
C[C@H]1CN([C@@H](C)CO)C(=O)c2cccc(NC(=O)c3ccncc3)c2O[C@@H]1CN(C)Cc1ccc(C(=O)O)cc1,> 20 µM,–
C[C@@H]1CN([C@@H](C)CO)C(=O)c2cccc(NC(=O)c3ccncc3)c2O[C@H]1CN(C)Cc1ccc(-c2ccccc2)cc1,> 20 µM,–
CNC[C@H]1Oc2c(NC(=O)c3ccccc3)cccc2C(=O)N(C(C)C)C[C@@H]1C,> 20 µM,–
C[C@@H]1CN([C@@H](C)CO)C(=O)c2cc(-c3cccnc3)cnc2O[C@H]1CN(C)Cc1ccc(Oc2ccccc2)cc1,> 20 µM,–
CC(C)N1C[C@H](C)[C@@H](CN(C)C(=O)OC(C)(C)C)Oc2c(NC(=O)c3cccnc3)cccc2C1=O,> 20 µM,–
C[C@@H]1CN([C@@H](C)CO)C(=O)c2cc(-c3ccncc3)cnc2O[C@H]1CN(C)Cc1ccc(Oc2ccccc2)cc1,5 µM,–
C[C@H]1CN([C@@H](C)CO)C(=O)c2cccc(NC(=O)c3ccncc3)c2O[C@@H]1CN(C)Cc1ccc(Cl)c(Cl)c1,> 20 µM,–
CC(C)N1C[C@H](C)[C@@H](CN(C)Cc2ccc(Oc3ccccc3)cc2)Oc2c(NC(=O)c3ccccc3)cccc2C1=O,16.1 µM,–
C[C@@H]1CN([C@@H](C)CO)C(=O)c2cccc(NC(=O)c3ccncc3)c2O[C@H]1CN(C)Cc1ccc(C(=O)O)cc1,> 20 µM,–
CC(C)N1C[C@H](C)[C@@H](CN(C)Cc2ccc(Cl)cc2)Oc2c(NC(=O)c3ccncc3)cccc2C1=O,> 20 µM,–
C[C@H]1CN([C@@H](C)CO)C(=O)c2cccc(NC(=O)c3ccncc3)c2O[C@@H]1CN(C)Cc1ccccc1,> 20 µM,–
C[C@H]1CN([C@@H](C)CO)C(=O)c2cccc(NC(=O)c3ccncc3)c2O[C@@H]1CN(C)Cc1ccc(Oc2ccccc2)cc1,> 20 µM,–
C[C@@H]1CN([C@@H](C)CO)C(=O)c2cc(Br)cnc2O[C@H]1CN(C)Cc1ccc2c(c1)OCO2,> 20 µM,–
C[C@H]1CN([C@@H](C)CO)C(=O)c2cccc(NC(=O)c3ccncc3)c2O[C@@H]1CN(C)Cc1ccncc1,> 20 µM,–
CC(C)N1C[C@H](C)[C@@H](CN(C)Cc2ccccc2Cl)Oc2c(NC(=O)c3ccncc3)cccc2C1=O,> 20 µM,–
CC(C)N(C)C(=O)c1cccc(NC(=O)c2ccncc2)c1OCCCN(C)Cc1ccc(Cl)cc1,> 20 µM,–
C[C@@H]1CN([C@H](C)CO)C(=O)c2cccc(NC(=O)c3ccncc3)c2O[C@@H]1CN(C)Cc1ccc(Oc2ccccc2)cc1,> 20 µM,IC90 [2]: 30.7 µM; IC99 [2]: 238 µM
CC(C)N1C[C@H](C)[C@@H](CN(C)C(=O)OC(C)(C)C)Oc2c(NC(=O)c3ccncc3)cccc2C1=O,> 20 µM,–
C[C@@H]1CN([C@@H](C)CO)C(=O)c2cccc(NC(=O)c3ccncc3)c2O[C@H]1CN(C)CC1CCCCC1,> 20 µM,IC90 [2]: 6.03 µM; IC99 [2]: 63.4 µM
C[C@@H]1CN([C@H](C)CO)C(=O)c2cccc(NC(=O)c3ccncc3)c2O[C@H]1CN(C)Cc1ccc(Oc2ccccc2)cc1,> 20 µM,IC90 [2]: 0.45 µM; IC99 [2]: 4.95 µM
CC(C)N1C[C@H](C)[C@@H](CN(C)C(=O)OC(C)(C)C)Oc2c(C(=O)O)cccc2C1=O,> 20 µM,–
C[C@H]1CN([C@@H](C)CO)C(=O)c2cccc(NC(=O)c3ccncc3)c2O[C@@H]1CN(C)Cc1ccc(C(=O)Nc2ccccc2N)cc1,> 20 µM,–
C[C@@H]1CN([C@@H](C)CO)C(=O)c2cccc(NC(=O)c3ccncc3)c2O[C@H]1CN(C)Cc1ccc(Cl)cc1,> 20 µM,–
C[C@@H]1CN([C@H](C)CO)C(=O)c2cccc(NC(=O)c3ccncc3)c2O[C@H]1CN(C)CC1CCCCC1,> 20 µM,IC90 [2]: 28.5 µM; IC99 [2]: 158 µM
C[C@@H]1CN([C@@H](C)CO)C(=O)c2cccc(NC(=O)c3cnccn3)c2O[C@H]1CN(C)Cc1ccc(Oc2ccccc2)cc1,> 20 µM,–

# — PubChem BioAssay AID651885 (Broad Institute, 2012)
